Measured values as given in patent publication US20180296630A1, “METHODS AND COMPOSITIONS FOR PREVENTING OR TREATING OPHTHALMIC CONDITIONS” (Stealth BioTherapeutics Corp, priority 2012, published 2018).

Experiments:
[1] = system: cytochrome c release in HRECs; test: Cytochrome c release from mitochondria of HRECs (confocal microscopy, Western blot); format: cell-based, human; details: 30 mmol/L glucose; 24 h or 48 h
Description: Glucose (30 mmol/L) induced cytochrome c release from the mitochondria of HRECs. Fixed HRECs were immunolabeled with a cytochrome c antibody and a mitochondrial specific protein antibody (HSP60).

[2] = system: primary human retinal pigment epithelial (RPE) cells; test: MMP of RPE cells exposed to tBHP (JC-1, FACS); format: cell-based
Experimental: Next, the viability of primary RPE cells was tested in the presence of tBHP and various concentrations of D-Arg-2′,6′-Dmt-Lys-Phe-NH2. Cells were plated at 10,000 cells per well in a 96-well plate and cultured for 24 h, then starved for 24 h. After that, cells were exposed to increasing concentrations of tBHP (FIG. 23A), or preincubated for 4 h with different concentrations of D-Arg-2′,6′-Dmt-Lys-Phe-NH2, then stimulated with tBHP for 6 h (FIG. 23B). […] Intracellular ROS production in three groups of RPE cells was also examined using FACS analysis. […] Three different concentration of D-Arg-2′,6′-Dmt-Lys-Phe-NH2 groups were analyzed. The ratio of red to green in 500 μM tBHP for the 3 h group is 1.08, the ratio of red to green in 10 nM D-Arg-2′,6′-Dmt-Lys-Phe-NH2 for 4 h+500 tBHP for 3 h group is 1.25; the ratio of red to green in 100 nM D-Arg-2′,6′-Dmt-Lys-Phe-NH2 for 4 hr+500 μM tBHP for 3 h group is 1.4; and the ratio of red to green in 1 μM D-Arg-2′,6′-Dmt-Lys-Phe-NH2 for 4 h+500 μM tBHP for 3 h group is […]. […] FIG. 33A: Control group, R/G is 3.63±0.24; FIG. 33B: 500 μM tBHP for 3 h group, R/G is 1.08±0.11; FIG. 33C: 1 μM D-Arg-2′,6′-Dmt-Lys-Phe-NH2 for 4 h+500 μM tBHP for 3 h group, R/G is 2.38±0.18. FIG. 33D is a chart comparing the fluorescence ratio for the different groups. *P<0.01, C vs. B.

caspase-3 in HRECs = test: Caspase-3 protein expression in high glucose-treated HRECs (Western blot); format: cell-based, human; details: 30 mM glucose co-treatment; 24 h and 48 h; p<0.05
Experimental: The level of cleaved caspase-3 protein expression was measured by Western blot (FIG. 5A). When HRECs were exposed to 30 mM glucose for 24 h and 48 h, the level of caspase-3 expression increased dramatically.

GTM cells [3] = test: Intracellular ROS production, acute H2O2 injury, FACS, GTM cells; format: cell-based, human; details: n=3
Description: The percentage of intracellular ROS production compared to GTM control in GTM H2O2, D-Arg-2′,6′-Dmt-Lys-Phe-NH2 10^−6M, D-Arg-2′,6′-Dmt-Lys-Phe-NH2 10^−7M, D-Arg-2′,6′-Dmt-Lys-Phe-NH2 10^−8M groups were 146.0±2.27%, 84.5±8.75%, 102.0±5.69%, 133.0±5.17% respectively (n=3); the HTM groups were 153.0±3.46%, 79±2.39%, 91.8±3.49%, 129.0±8.24% respectively (n=4). P<0.001 GTM and HTM H2O2 Group compared to control; *** means P<0.001 compared to GTM H2O2 group; ▴ ▴ ▴ Means P<0.001 compared to HTM H2O2 group; ▴ ▴ means P<0.01 compared to HTM H2O2 group.

GTM cells [4] = test: TMRM fluorescence (mitochondrial membrane potential), acute H2O2 injury, FACS, GTM cells; format: cell-based, human; details: n=4
Description: Methods to measure mitochondrial membrane potential using TMRM useful in the studies of the present invention have been described by Andrea Rasola and Massimo Geuna, A flow cytometry assay simultaneously detects independent apoptotic parameters, Cytometry 45:151-157, 2001; Mitoprobe™ JC-1 Kit for Flow Cytometry, Molecular Probes, Invitrogen, USA.
The mitochondrial membrane potential (Δψm) of HTM and GTM cells was investigated when those cells were exposed to hydrogen peroxide prior to administration of D-Arg-2′,6′-Dmt-Lys-Phe-NH2. First, the mitochondrial membrane potential was measured using confocal microscopy of cells labeled with tetramethylrhodamine methyl ester (TMRM, 500 nM×30 min) (FIG. 15). The mitochondrial membrane potential was also measured using flow cytometry (FIGS. 16-17) by labeling cells with the mitochondrion-selective probe tetramethylrhodamine methyl ester (TMRM, 500 nM×30 min).
The effects of D-Arg-2′,6′-Dmt-Lys-Phe-NH2 at mitigating acute oxidative injury in GTM and HTM cells was investigated. […] The percentage of fluorescence intensity compared to GTM control in H2O2, D-Arg-2′,6′-Dmt-Lys-Phe-NH2 10^−6M, D-Arg-2′,6′-Dmt-Lys-Phe-NH2 10^−7M, D-Arg-2′,6′-Dmt-Lys-Phe-NH2 10^−8M were 35.2±2.12%, 56.2±4.04%, 50.3±4.46%, 47.5±2.82% respectively, n=4; the HTM groups were 37.4±0.725%, 57.7±1.80%, 50.6±3.06%, 49.4±2.27% respectively, n=4. ** means P<0.01 compared to GTM H2O2 group; * means P<0.05 compared to GTM H2O2 group; ▴ ▴ ▴ means P<0.001 compared to HTM H2O2 group.

## D-Arg-2′,6′-Dmt-Lys-Phe-NH2
[1]
  translocation of cytochrome c between mitochondria and cytoplasm: decrease
[2]; 10 nM for 4 h + 500 tBHP for 3 h (FIG. 32)
  ratio of red to green (JC-1): 1.25
[2]; 100 nM for 4 hr + 500 μM tBHP for 3 h (FIG. 32)
  ratio of red to green (JC-1): 1.4
[2]; 1 μM for 4 h + 500 μM tBHP for 3 h (FIG. 32)
  ratio of red to green (JC-1): 2.28
[2]; 1 μM for 4 h + 500 μM tBHP for 3 h (FIG. 33C)
  R/G (JC-1): 2.38±0.18
caspase-3 in HRECs
  caspase-3 protein level: marked decrease
GTM cells [3]; 10^−6M
  percentage of intracellular ROS production compared to GTM control: 84.5±8.75%
GTM cells [3]; 10^−7M
  percentage of intracellular ROS production compared to GTM control: 102.0±5.69%
GTM cells [3]; 10^−8M
  percentage of intracellular ROS production compared to GTM control: 133.0±5.17%
GTM cells [4]; 10^−6M
  percentage of TMRM fluorescence intensity compared to GTM control: 56.2±4.04%
GTM cells [4]; 10^−7M
  percentage of TMRM fluorescence intensity compared to GTM control: 50.3±4.46%
GTM cells [4]; 10^−8M
  percentage of TMRM fluorescence intensity compared to GTM control: 47.5±2.82%
